One compound from patent US20040110821A1, “GAL3 receptor antagonists for the treatment of affective disorders” (priority 2002, published 2004) can be followed below.

Each structure is given as a SMILES string.

The target in assay [1] is T1, human α2A adrenergic receptor (Homo sapiens, UniProt P08913).
T1 construct: expressed in transfected cells
Kind of assay: Binding at human α2A adrenergic receptor. As to conditions: read-out: hα2A Ki. The text has this:
Other receptors: Cell membranes expressing human dopamine D1, D2, D4 and rat D3 receptors were purchased through BioSignal, Inc. (Montreal, Canada). Binding assays using the histamine H1 receptor; dopamine receptors; and α1A, α1B, and α2 adrenergic receptors may be carried out according to the procedures described in U.S. Pat. No. 5,780,485, the disclosure of which is hereby incorporated by reference in its entirety into this application. Binding assays using the dopamine D5 receptor may be carried out according to the procedures described in U.S. Pat. No. 5,882,855, the disclosure of which is hereby incorporated by reference in its entirety into this application. Binding assays for the human α1D adrenergic receptor may be carried out according to the procedures described in U.S. Pat. No. 6,156,518, the disclosure of which is hereby incorporated by reference in its entirety into this application.
(§1) Binding data were analyzed using nonlinear regression and statistical techniques available in the GraphPAD Prism package (San Diego, Calif.). Enzymatic assay data were derived from a standard curve of reference compound data.

The target in assay [2] is T2, Monoamine Oxidase A (central) (Rattus norvegicus, UniProt P21396).
T2 construct: Rat brain was used as the enzyme source; tissue NovaScreen (Hanover, Md.) performed the assay; host or cells: rat brain
T2 sequence (P21396 whole entry): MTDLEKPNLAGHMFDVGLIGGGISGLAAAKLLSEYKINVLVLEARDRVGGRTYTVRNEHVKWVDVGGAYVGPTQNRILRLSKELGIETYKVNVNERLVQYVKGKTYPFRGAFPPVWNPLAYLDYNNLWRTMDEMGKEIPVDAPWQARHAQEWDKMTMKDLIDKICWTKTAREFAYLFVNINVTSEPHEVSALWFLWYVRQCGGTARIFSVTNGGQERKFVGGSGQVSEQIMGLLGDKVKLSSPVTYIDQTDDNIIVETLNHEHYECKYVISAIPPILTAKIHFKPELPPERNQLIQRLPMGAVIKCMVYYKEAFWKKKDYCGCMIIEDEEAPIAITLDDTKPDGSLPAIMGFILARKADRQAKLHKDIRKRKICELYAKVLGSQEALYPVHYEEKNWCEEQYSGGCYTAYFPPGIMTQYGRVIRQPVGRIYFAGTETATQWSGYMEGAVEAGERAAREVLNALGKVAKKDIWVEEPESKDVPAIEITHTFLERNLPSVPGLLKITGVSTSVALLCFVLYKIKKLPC
Kind of assay: Central Monoamine Oxidase A Enzyme Assay. In kind it is biochemical. The settings on record: rat brain as enzyme source. The procedure:
The methods to determine activity at monoamine oxidase enzymes (for example, central MAOA and MAOB) are described by Otsuka and Kobayashi, 1964, and were performed by NovaScreen (Hanover, Md.) with the following modifications.
Central Monoamine Oxidase A Enzyme Assay: Rat brain was used as the enzyme source. The enzyme source was pre-incubated with reference compound (RO 41-1049), test compound (Example 92), and subtype selective blocker (100 nM deprenyl) for 60 minutes at 37° C. in 50 mM KPO4 containing 50 μM EDTA and 10 μM dithiothreitol (pH 7.2 at 25° C.). Substrate ([^14C]Serotonin, […]) was then added and incubated for 30 minutes. The reaction was stopped by the addition of 0.5 ml of 1-2M citric acid. Radioactive product was extracted into xylene/ethyl acetate fluor and compared to control values by scintillation spectrophotometry in order to ascertain any interactions of test compound with central MAOA.
as §1

In assay [3] the target is T3, human 5HT1D receptor (Homo sapiens, UniProt P28221).
T3 construct: expressed in transfected cells
T3 sequence (P28221 whole entry): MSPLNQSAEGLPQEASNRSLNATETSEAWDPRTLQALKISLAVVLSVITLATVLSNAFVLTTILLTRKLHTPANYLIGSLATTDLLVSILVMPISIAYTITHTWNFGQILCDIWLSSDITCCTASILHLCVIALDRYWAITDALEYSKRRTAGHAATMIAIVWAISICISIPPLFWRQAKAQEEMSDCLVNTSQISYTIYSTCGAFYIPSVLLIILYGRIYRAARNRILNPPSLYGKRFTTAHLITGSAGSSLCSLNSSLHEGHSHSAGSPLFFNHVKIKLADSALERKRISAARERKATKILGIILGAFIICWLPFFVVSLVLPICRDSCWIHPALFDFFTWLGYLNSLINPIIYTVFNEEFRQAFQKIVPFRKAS
Kind of assay: Radioligand binding at human 5HT1D receptor. The settings on record: read-out: h5HT1D Ki. The procedure: Human 5HT1B, 5HT1D, 5HT1E, 5HT1F, and 5HT7 ReceDtors: The cell lysates of LM(tk-) clonal cell line stably transfected with the genes encoding each of these 5HT receptor-subtypes were prepared as described above. Cell membranes were suspended in 50 mM Tris-HCl buffer (pH 7.4 at 37° C.) containing 10 mM MgCl2, 0.2 mM EDTA, 10 µM pargyline, and 0.1% ascorbate. […] Nonspecific binding was determined in the presence of 10 μM serotonin. The bound radioligand was separated by filtration through GF/B filters using a cell harvester.
as §1

Assay [4] concerns the target T4, human 5HT4 receptor (Homo sapiens, UniProt Q13639).
T4 construct: expressed in transfected cells
Kind of assay: Radioligand binding at 5-HT4 receptor. The settings on record: read-out: h5HT4 Ki. The procedure: Other 5-HT ReceDtors: Other serotonin receptor binding assays were performed according to published methods: rat 5HT2c receptor (Julius et al., 1988); and 5-HT6 (Monsma, et al., 1993). The binding assays using the 5-HT4 receptor were performed according to the procedures described in U.S. Pat. No. 5,766,879, the disclosure of which is hereby incorporated by reference in its entirety into this application.
as §1

T1 sequence (P08913 whole entry): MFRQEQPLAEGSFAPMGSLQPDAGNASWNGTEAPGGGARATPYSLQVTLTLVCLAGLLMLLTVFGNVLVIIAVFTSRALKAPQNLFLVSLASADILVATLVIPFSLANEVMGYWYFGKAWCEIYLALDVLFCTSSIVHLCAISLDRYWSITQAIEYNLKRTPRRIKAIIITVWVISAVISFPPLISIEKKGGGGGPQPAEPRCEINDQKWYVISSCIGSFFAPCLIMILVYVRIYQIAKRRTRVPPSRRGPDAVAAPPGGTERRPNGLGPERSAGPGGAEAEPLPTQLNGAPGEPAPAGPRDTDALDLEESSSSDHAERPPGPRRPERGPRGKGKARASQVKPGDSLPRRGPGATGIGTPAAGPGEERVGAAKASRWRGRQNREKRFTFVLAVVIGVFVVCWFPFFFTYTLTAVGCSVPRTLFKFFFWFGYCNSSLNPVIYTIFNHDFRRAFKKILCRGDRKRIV
T4 sequence (Q13639 whole entry): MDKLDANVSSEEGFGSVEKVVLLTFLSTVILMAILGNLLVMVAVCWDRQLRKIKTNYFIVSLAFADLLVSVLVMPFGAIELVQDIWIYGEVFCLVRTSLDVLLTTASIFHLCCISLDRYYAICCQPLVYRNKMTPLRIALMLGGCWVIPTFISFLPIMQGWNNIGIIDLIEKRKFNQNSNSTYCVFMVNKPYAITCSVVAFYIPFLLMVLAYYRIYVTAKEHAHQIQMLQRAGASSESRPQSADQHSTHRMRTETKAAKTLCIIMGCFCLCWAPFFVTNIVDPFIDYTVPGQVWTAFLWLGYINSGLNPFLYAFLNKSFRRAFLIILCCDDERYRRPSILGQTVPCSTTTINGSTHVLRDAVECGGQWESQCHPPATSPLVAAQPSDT

Take `O=C1C(=Nc2cccc(C(F)(F)F)c2)c2ccccc2N1c1ccccc1` [Example 92, 1-PHENYL-3-[[3-(TRIFLUOROMETHYL)PHENYL]IMINO]-1,3-DIHYDRO-2H-INDOL-2-ONE]: the Ki in assay [1] came to 21.9 µM; in assay [3] it was 32.1 µM; in assay [4], 0.072 µM. In addition, in assay [2], the “% INHIBITION” value stood at 10%.
